Patent publication US20080182274A1, “MONITOR PROTEINS USABLE FOR ANALYZING EXPRESSION OF MEMBRANE PROTEINS” (National Institute of Advanced Industrial Science and …, priority 2007, published 2008)

System: monitor protein expressed on the cell membrane
Assay: Recovery of cell-membrane luminescence after Sulfo-NHS deactivation (intracellular transport of monitor protein)
Assay type: cell-based, Chinese hamster
Conditions: CHO-K1 cells expressing pCMV-DL-D3-CD8, 1 mM BFA, up to 6 hours after deactivation, FIG. 6
Method: The vector pCMV-DL-D3-CD8 prepared in Example 1 was introduced into an animal cell. Briefly, CHO-K1 cells were seeded on 6-well plates at 1=10^6 cells/well and cultured in D-MEM/Ham's F-12 medium (Wako Purechamical Industries) containing 10% FCS. After overnight culture at 37° C., 4 μg of pCMV-DL-D3-CD8 was added to each well and mixed with 250 μl of Opti-MEM serum-free medium (Gibco RRL) and reacted at room temperature for 5 min. Then, 10 μl of lipofectamine 2000 reacted in 250 μl of Opti-MEM serum-free medium at room temperature for 5 min was mixed with the cells to perform transfection in Opti-MEM serum-free medium. Then, the medium was exchanged for D-MEM/Ham's F-12 medium containing 10% FCS. […] Then, cells were counted, followed by preparation of a cell suspension with a cell density of 2×10^7 cells/ml.
By adding 0.5 mM Sulfo-NHS (Pierce) to the cell suspension, the monitor protein expressed on the cell membrane was inactivated. […] Cells were counted and arranged to give a density of 4×10^5 cells per 100 μl. […] To one aliquot, 2 μl of dinoflagellate-derived luciferin was added and the luminescence activity of the monitor protein expressed on the cell membrane was measured. Other aliquots were subjected to measurement of the amount of ATP-derived luminescence in order to examine whether the cell count is constant in individual samples taken at the above-indicated time points.

With `C[C@H]1CCC/C=C/[C@@H]2C[C@H](O)C[C@H]2[C@H](O)/C=C/C(=O)O1` [BFA, Brefeldin A] the “luminescence derived from the membrane protein expressed on the cell membrane after deactivation treatment” value was “luminescence was not recognized”.
